Measurements published in patent US5677419A, “Cyclic vasoactive peptide analogs” (Hoffmann-La Roche Inc., priority 1994, dated 1997).
Where a SMILES comes first, the peptide text is derived from it. Bridges are numbered along the chain shown (N, C = ends). [ ]: non-standard residue; d: D form. Phe(4-F) = N[C@@H](Cc1ccc(F)cc1)C(=O)O; Nle = CCCC[C@H](N)C(=O)O

How the values were obtained:
[1] = tested on: guinea pig tracheal smooth muscle; assay: Tracheal relaxant activity of VIP analogs on isolated guinea pig tracheal rings; type: cell-based; conditions: cumulative concentration response, relaxation as % of maximum response to VIP (10^-6 M=100%), three tissues pooled, linear regression
Procedure, shortened: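 Male guinea pig tracheal rings under 1.5 g resting tension in Krebs at 37° C, 95% O2/5% CO2, isometric tension. Cumulative concentration-response curves; relaxation as % of response to 10^-6 M VIP added at end; three tissues pooled, EC50 by linear regression.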

guinea pigs = assay: In vivo bronchodilator activity by tracheal instillation against histamine challenge; design: species or system guinea pig; conditions: anesthetized male guinea pigs, inhibition of histamine (i.v.)-induced rise in tracheal pressure
Procedure, shortened: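 Urethane-anaesthetised male Hartley guinea pigs (400-600 g) received compound in water by intratracheal instillation, then were paralysed, ventilated and challenged with histamine […] i.v. Tracheal pressure change gave % inhibition (≥3 animals/group); ED50 from log dose-response; duration as time until inhibition fell to 40%.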

## CCCC[C@H](NC(=O)[C@H](CCC(N)=O)NC(=O)[C@H](CCCCN)NC(=O)[C@H](CCCNC(=N)N)NC(=O)[C@H](CC(C)C)NC(=O)[C@H](CCCCN)NC(=O)[C@@H](NC(=O)[C@H](Cc1ccc(O)cc1)NC(=O)[C@H](CC(N)=O)NC(=O)[C@H](C)NC(=O)[C@@H](NC(=O)[C@H](Cc1ccccc1)NC(=O)[C@@H](NC(=O)[C@H](C)NC(=O)[C@H](CC(=O)O)NC(=O)[C@H](CO)NC(=O)[C@H](Cc1c[nH]cn1)NC(C)=O)C(C)C)[C@@H](C)O)[C@@H](C)O)C(=O)N[C@@H](C)C(=O)N[C@@H](C)C(=O)N[C@@H](CCCCN)C(=O)N[C@H]1CCCCNC(=O)C[C@@H](C(=O)N[C@@H](CC(C)C)C(=O)N[C@@H](CCCCN)C(=O)N[C@@H](CCCCN)C(N)=O)NC(=O)[C@H](C)NC(=O)[C@H](CC(C)C)NC(=O)[C@H](Cc2ccc(O)cc2)NC1=O [SEQ ID NO:59, Ac-[Ala^8,Lys^12,Nle^17,Ala^19,Ala^24,Asp^25,Leu^26,Lys^27,28]-VIP cyclo (Lys^21 →Asp^25)] (Ac-HSDAVFTANYTKLRKQ[Nle]AAKKYLADLKK-NH2; lactam 21-25)
[1]
  EC50: 1.1 nM
Guinea pigs
  Bronchodilator activity of VIP analogs in guinea pigs, ED50: 0.17 μg

## CC(=O)N[C@@H](Cc1c[nH]cn1)C(=O)N[C@@H](CO)C(=O)N[C@@H](CC(=O)O)C(=O)N[C@@H](C)C(=O)N[C@H](C(=O)N[C@@H](Cc1ccccc1)C(=O)N[C@H](C(=O)N[C@@H](CCC(=O)O)C(=O)N[C@@H](CC(N)=O)C(=O)N[C@@H](Cc1ccc(O)cc1)C(=O)N[C@H](C(=O)N[C@@H](CCCCN)C(=O)N[C@@H](CC(C)C)C(=O)N[C@@H](CCCNC(=N)N)C(=O)N[C@@H](CCCCN)C(=O)N[C@@H](C)C(=O)N[C@@H](C)C(=O)N[C@@H](C)C(=O)N[C@@H](C)C(=O)N[C@@H](CCCCN)C(=O)N[C@H]1CCCCNC(=O)C[C@@H](C(=O)N[C@@H](CC(C)C)C(=O)N[C@@H](CCCCN)C(=O)N[C@@H](CCCCN)C(N)=O)NC(=O)[C@H](CC(N)=O)NC(=O)[C@H](CC(C)C)NC(=O)[C@H](Cc2ccc(O)cc2)NC1=O)[C@@H](C)O)[C@@H](C)O)C(C)C [SEQ ID NO:60, Ac-[Glu^8,Lys^12,Ala^16,17,19,Asp^25,Leu^26,Lys^27,28]-VIP cyclo (Lys^21 →Asp^25)] (Ac-HSDAVFTENYTKLRKAAAAKKYLNDLKK-NH2; lactam 21-25)
[1]
  EC50: 0.26 nM
Guinea pigs
  Bronchodilator activity of VIP analogs in guinea pigs, ED50: 0.17 μg

## CCCC[C@H](NC(=O)[C@H](C)NC(=O)[C@H](CCCCN)NC(=O)[C@H](CCCNC(=N)N)NC(=O)[C@H](CC(C)C)NC(=O)[C@H](CCCCN)NC(=O)[C@@H](NC(=O)[C@H](Cc1ccc(O)cc1)NC(=O)[C@H](CC(N)=O)NC(=O)[C@H](C)NC(=O)[C@@H](NC(=O)[C@H](Cc1ccccc1)NC(=O)[C@@H](NC(=O)[C@H](C)NC(=O)[C@H](CC(=O)O)NC(=O)[C@H](CO)NC(=O)[C@H](Cc1c[nH]cn1)NC(C)=O)C(C)C)[C@@H](C)O)[C@@H](C)O)C(=O)N[C@@H](C)C(=O)N[C@@H](C)C(=O)N[C@@H](CCCCN)C(=O)N[C@H]1CCCCNC(=O)C[C@@H](C(=O)N[C@@H](CC(C)C)C(=O)N[C@@H](CCCCN)C(=O)N[C@@H](CCCCN)C(N)=O)NC(=O)[C@H](C)NC(=O)[C@H](CC(C)C)NC(=O)[C@H](Cc2ccc(O)cc2)NC1=O [SEQ ID NO:61, Ac-[Ala^8,Lys^12,Ala^16,Nle^17,Ala^19,Ala^24,Asp^25,Leu^26,Lys^27,28]-VIP cyclo (Lys^21 →Asp^25)] (Ac-HSDAVFTANYTKLRKA[Nle]AAKKYLADLKK-NH2; lactam 21-25)
[1]
  EC50: 2.4 nM
Guinea pigs
  Bronchodilator activity of VIP analogs in guinea pigs, ED50: 0.045 μg

## CC(=O)N[C@@H](Cc1c[nH]cn1)C(=O)N[C@@H](CO)C(=O)N[C@@H](CC(=O)O)C(=O)N[C@@H](C)C(=O)N[C@H](C(=O)N[C@@H](Cc1ccccc1)C(=O)N[C@H](C(=O)N[C@@H](C)C(=O)N[C@@H](CC(N)=O)C(=O)N[C@@H](Cc1ccc(O)cc1)C(=O)N[C@H](C(=O)N[C@@H](CCCCN)C(=O)N[C@@H](CC(C)C)C(=O)N[C@@H](CCCNC(=N)N)C(=O)N[C@@H](CCCCN)C(=O)N[C@@H](C)C(=O)N[C@@H](C)C(=O)N[C@@H](C)C(=O)N[C@@H](C)C(=O)N[C@@H](CCCCN)C(=O)N[C@H]1CCCCNC(=O)C[C@@H](C(=O)N[C@@H](CC(C)C)C(=O)N[C@@H](CCCCN)C(=O)N[C@@H](CCCCN)C(N)=O)NC(=O)[C@H](C)NC(=O)[C@H](CC(C)C)NC(=O)[C@H](Cc2ccc(O)cc2)NC1=O)[C@@H](C)O)[C@@H](C)O)C(C)C [SEQ ID NO:62, Ac-[Ala^8,Lys^12,Ala^16,17,19,Ala^24,Asp^25,Leu^26,Lys^27,28]-VIP cyclo (Lys^21 →Asp^25)] (Ac-HSDAVFTANYTKLRKAAAAKKYLADLKK-NH2; lactam 21-25)
[1]
  EC50: 0.1 nM
Guinea pigs
  Bronchodilator activity of VIP analogs in guinea pigs, ED50: 0.24 μg

## CC(=O)N[C@@H](Cc1c[nH]cn1)C(=O)N[C@@H](CO)C(=O)N[C@@H](CC(=O)O)C(=O)N[C@@H](C)C(=O)N[C@H](C(=O)N[C@@H](Cc1ccccc1)C(=O)N[C@H](C(=O)N[C@@H](CCC(=O)O)C(=O)N[C@@H](CC(N)=O)C(=O)N[C@@H](Cc1ccc(O)cc1)C(=O)N[C@H](C(=O)N[C@@H](CCCCN)C(=O)N[C@@H](CC(C)C)C(=O)N[C@@H](CCCNC(=N)N)C(=O)N[C@@H](CCCCN)C(=O)N[C@@H](C)C(=O)N[C@@H](C)C(=O)N[C@@H](C)C(=O)N[C@@H](C)C(=O)N[C@@H](CCCCN)C(=O)N[C@H]1CCCCNC(=O)C[C@@H](C(=O)N[C@@H](CC(C)C)C(=O)N[C@@H](CCCCN)C(=O)N[C@@H](CCCCN)C(N)=O)NC(=O)[C@H](C)NC(=O)[C@H](CC(C)C)NC(=O)[C@H](Cc2ccc(O)cc2)NC1=O)[C@@H](C)O)[C@@H](C)O)C(C)C [SEQ ID NO:64, Ac-[Glu^8,Lys^12,Ala^16,17,19,Ala^24,Asp^25,Leu^26,Lys^27,28]-VIP cyclo (Lys^21 →Asp^25)] (Ac-HSDAVFTENYTKLRKAAAAKKYLADLKK-NH2; lactam 21-25)
[1]
  EC50: 0.22 nM
Guinea pigs
  Bronchodilator activity of VIP analogs in guinea pigs, ED50: 0.13 μg

## CCCC[C@H](NC(=O)[C@H](CCC(N)=O)NC(=O)[C@H](CCCCN)NC(=O)[C@H](CCCNC(=N)N)NC(=O)[C@H](CC(C)C)NC(=O)[C@H](CCCCN)NC(=O)[C@@H](NC(=O)[C@H](Cc1ccc(O)cc1)NC(=O)[C@H](CC(N)=O)NC(=O)[C@H](CCC(=O)O)NC(=O)[C@@H](NC(=O)[C@H](Cc1ccccc1)NC(=O)[C@@H](NC(=O)[C@H](C)NC(=O)[C@H](CC(=O)O)NC(=O)[C@H](CO)NC(=O)[C@H](Cc1c[nH]cn1)NC(C)=O)C(C)C)[C@@H](C)O)[C@@H](C)O)C(=O)N[C@@H](C)C(=O)N[C@@H](C)C(=O)N[C@@H](CCCCN)C(=O)N[C@H]1CCCCNC(=O)C[C@@H](C(=O)N[C@H](C(=O)N[C@@H](CC(C)C)C(=O)N[C@H](C(=O)NCC(=O)NCC(=O)N[C@H](C(N)=O)[C@@H](C)O)[C@@H](C)O)C(C)C)NC(=O)[C@H](CC(N)=O)NC(=O)[C@H](CC(C)C)NC(=O)[C@H](Cc2ccc(O)cc2)NC1=O [SEQ ID NO:65, Ac-[Glu^8,Lys^12,Nle^17,Ala^19,Asp^25,Val^26,Thr^28,Gly^29,30,Thr^31]-VIP cyclo (Lys^21 →Asp^25)] (Ac-HSDAVFTENYTKLRKQ[Nle]AAKKYLNDVLTGGT-NH2; lactam 21-25)
[1]
  EC50: 0.88 nM
Guinea pigs
  Bronchodilator activity of VIP analogs in guinea pigs, ED50: 0.84 μg

## CCCC[C@H](NC(=O)[C@H](CCC(N)=O)NC(=O)[C@H](CCCCN)NC(=O)[C@H](CCCNC(=N)N)NC(=O)[C@H](CC(C)C)NC(=O)[C@H](CCCCN)NC(=O)[C@@H](NC(=O)[C@H](Cc1ccc(O)cc1)NC(=O)[C@H](CC(N)=O)NC(=O)[C@H](CCC(=O)O)NC(=O)[C@@H](NC(=O)[C@H](Cc1ccc(F)cc1)NC(=O)[C@@H](NC(=O)[C@H](C)NC(=O)[C@H](CC(=O)O)NC(=O)[C@H](CO)NC(=O)[C@H](Cc1c[nH]cn1)NC(C)=O)C(C)C)[C@@H](C)O)[C@@H](C)O)C(=O)N[C@@H](C)C(=O)N[C@H](C(=O)N[C@@H](CCCCN)C(=O)N[C@H]1CCCCNC(=O)C[C@@H](C(=O)N[C@H](C(=O)N[C@@H](CC(C)C)C(=O)N[C@H](C(=O)NCC(=O)NCC(=O)N[C@H](C(N)=O)[C@@H](C)O)[C@@H](C)O)C(C)C)NC(=O)[C@H](CC(N)=O)NC(=O)[C@H](CC(C)C)NC(=O)[C@H](Cc2ccc(O)cc2)NC1=O)C(C)C [SEQ ID NO:66, Ac-[p-F-Phe^6,Glu^8,Lys^12,Nle^17,Asp^25,Val^26,Thr^28,Gly^29,30,Thr^31]-VIP cyclo (Lys^21 →Asp^25)] (Ac-HSDAV[Phe(4-F)]TENYTKLRKQ[Nle]AVKKYLNDVLTGGT-NH2; lactam 21-25)
[1]
  EC50: 0.57 nM
Guinea pigs
  Bronchodilator activity of VIP analogs in guinea pigs, ED50: 0.12 μg

## CCCC[C@H](NC(=O)[C@H](CCC(N)=O)NC(=O)[C@H](CCCCN)NC(=O)[C@H](CCCNC(=N)N)NC(=O)[C@H](CC(C)C)NC(=O)[C@H](CCCCN)NC(=O)[C@@H](NC(=O)[C@H](Cc1ccc(O)cc1)NC(=O)[C@H](CC(N)=O)NC(=O)[C@H](CCC(=O)O)NC(=O)[C@@H](NC(=O)[C@H](Cc1ccccc1)NC(=O)[C@@H](NC(=O)[C@H](C)NC(=O)[C@H](CC(=O)O)NC(=O)[C@H](C)NC(=O)[C@H](Cc1c[nH]cn1)NC(C)=O)C(C)C)[C@@H](C)O)[C@@H](C)O)C(=O)N[C@@H](C)C(=O)N[C@H](C(=O)N[C@@H](CCCCN)C(=O)N[C@H]1CCCCNC(=O)C[C@@H](C(=O)N[C@@H](CC(C)C)C(=O)N[C@@H](CCCCN)C(=O)N[C@@H](CCCCN)C(=O)NCC(=O)NCC(=O)N[C@H](C(N)=O)[C@@H](C)O)NC(=O)[C@H](CC(N)=O)NC(=O)[C@H](CC(C)C)NC(=O)[C@H](Cc2ccc(O)cc2)NC1=O)C(C)C [SEQ ID NO:67, Ac-[Ala^2,Glu^8,Lys^12,Nle^17,Asp^25,Leu^26,Lys^27,28,Gly^29,30,Thr^31]-VIP cyclo (Lys^21 →Asp^25)] (Ac-HADAVFTENYTKLRKQ[Nle]AVKKYLNDLKKGGT-NH2; lactam 21-25)
[1]
  EC50: 0.19 nM
Guinea pigs
  Bronchodilator activity of VIP analogs in guinea pigs, ED50: 0.077 μg
